Laboratory results from US7579006B2, “Method of treating immune pathologies with low dose estrogen” (Oregon Health and Science University, priority 2000, dated 2009).

How the values were obtained:
[1] = system: spinal cord mRNA; assay: RNAse protection assay of spinal cords of wildtype and cytokine knockout mice with EAE; assay type: in vivo
Experimental: RNAse protection assay. Chemokine, chemokine receptor and cytokine mRNAs were detected by RPA essentially as described in Example III, except that analysis was performed on 20 μg total RNA.
Estrogen treatment reduces chemokine and chemokine receptor mRNA expression in the CNS. The egress of inflammatory cells into the CNS is a critical first step in the development of EAE. Chemokines are low molecular weight chemotactic molecules that are thought to play an important role in the migration and retention of immunocompetent cells in the CNS. The influence of E2 treatment on chemokine and chemokine receptor mRNA in the spinal cords of WT and cytokine deficient mice was measured using the RNAse protection assay (RPA). Total RNA was purified from spinal cords collected from mice at the peak of EAE (day 12-16 post-immunization) and chemokine/chemokine receptor specific mRNA was detected using radiolabeled riboprobes. mRNAs coding for many of the chemokine and receptor family members were detectable in the spinal cords of WT C57BL/6 mice with EAE (FIG. 18). RANTES and IP-10 were expressed at the highest levels, followed by MIP-1α, MIP-2 and MCP-1. The levels of TCA-3 mRNA were below the limits of detection for this assay. […]
The expression of cytokine mRNA in the spinal cords of mice at the peak of EAE (day 12-16 post-immunization) was measured by RPA analysis. […]

[2] = system: IL-10 KO mice; assay: EAE induced with MOG 35-55 in IL-10 KO mice (clinical, histopathology); assay type: in vivo; conditions: 2.5 mg pellet
Experimental: Estrogen treatment. Sixty-day release pellets containing 2.5 mg of 17β-estradiol (E2) or vehicle were implanted subcutaneously (s.c) in the scapular region behind the neck using a 12-gauge trochar as described by the manufacturer (Innovative Research of America, Sarasota, Fla.). The mice were implanted one week prior to immunization with MOG 35-55. The concentration of E2 expected in the serum is between 1,500-2,000 pg/ml, which is approximately 5 times less than the levels found during pregnancy.
Induction of EAE. C57BL/6 and cytokine deficient mice were inoculated s.c in the flanks with 0.2 ml of an emulsion containing 200 μg of MOG 35-55 in saline and an equal volume of complete Freund's Adjuvant (CFA) containing 400 μg of Mycobacterium tuberculosis H37RA (Difco Laboratories, Detroit, Mich.). Disease induction required i.v. administration of pertussis toxin on the day of immunization (25 ng/mouse) and 2 days later (67 ng/mouse). The mice were assessed daily for clinical signs of EAE according to the 7 point scale described in Example I.
Histopathology. Histopathologic assessment of spinal column section was performed essentially as described in Example I, except that sections were stained with either luxol fast blue-periodic acid schiff-hematoxylin or silver nitrate prior to analysis.
Statistical analysis. Significant differences in incidence and mortality between untreated and E2 treated mice were assessed by Chi-square analysis. Difference in onset was determined using the two-tailed Student t test. Differences in peak score and cumulative disease index (CDI) were assessed by the Mann-Whitney test. Statistical significance of the frequency of cytokine secreting cells was analyzed using Student's t test for comparisons of two means. Differences in the expression of chemokine and cytokine mRNA were also determined using the Student t test. Values of p<0.05 were considered significant.

Which “levels of LT-β, TNF-α and IFN-γ mRNA in spinal cords” value ([1]; C57BL/6 and cytokine knockout mice, except LT-β in IFN-γ deficient mice) does the source give for `C[C@]12CC[C@@H]3c4ccc(O)cc4CC[C@H]3[C@@H]1CC[C@@H]2O` [17β-estradiol] here?
The value was “significantly reduced”.

And the “expression of all chemokine and chemokine receptor mRNA in spinal cord” value ([1]; WT and cytokine deficient mice, 2.5 mg pellet)?
The value was “significantly diminished or absent”.

What about the CDI ([2]; IL-10 KO) of the same molecule?
Its CDI is 6.5 ± 10.9.

And the Incidence ([2]; IL-10 KO)?
Its Incidence is 6/17.

What about the Mortality ([2]; IL-10 KO) of the same molecule?
Its Mortality is 0/17.

And the Onset ([2]; IL-10 KO)?
Its Onset is 22.0 ± 4.3.

What about the “Peak Score” value ([2]; IL-10 KO) of the same molecule?
The value was 4.2 ± 0.8.

What about the “Inflammatory foci/section” value ([2]; IL-10KO, spinal cord) of the same molecule?
Its value is 0.0 ± 0.0 Foci/Section.
